No end group written: not given here.
Assays:
rats = experiment: Bone mineral apposition rate in intact rats after subcutaneous injection of polypeptide, tetracycline labelling; type: in vivo, Sprague-Dawley rats; conditions: for Bone stimulatory activity of substituted 10-amino acid polypeptides: rats about 300 grams, 100 nmoles s.c. per animal, N-terminus acetylated, C-terminus amidated, compared with family retaining full charge pattern; for Increase of bone apposition rate with respect to the control: non-N-terminus variants (Table Nineteen, FIG. 12); for Bone Apposition Rate, Mean: rats injected with non-N-terminus variants, SEQ ID NO:1 for comparison, lower metaphysis of right femur (Table Nineteen)
Procedure: Experiments were carried out on three groups of six rats weighing between 295 and 320 g. A 1 mg per ml solution of the modified peptide (SEQ ID NO:3) was prepared in 0.1% acetic acid. A 1 mg per ml solution of the normal peptide (SEQ ID NO:1) was prepared in 0.1% acetic acid. Each rat of a first of the groups had subcutaneously injected into its right thigh 0.1 ml of the modified peptide solution. Similarly, each rat of the second group was injected with 0.1 ml of the normal peptide solution. Each rat of the third group, the control group, was injected with 0.1 ml of 0.1% acetic acid solution. Immediately following these injections, each rat was injected intramuscularly with 24 mg per Kg body weight of tetracycline hydrochloride dissolved in 0.5 ml of water. A second dose of tetracycline hydrochloride was administered 48 hours later. The animals were sacrificed 24 hours after the second dose by CO2 narcosis. The lower metaphysis of the right femur was dissected out and fixed in a 10% aqueous solution of formaldehyde buffered at pH 7.2 by acetate buffer. Bone sections were prepared for measurement as described above.
Sprague-Dawley rats were used as test animals to determine bone mineral apposition rate, as described above. Male rats having weights between 280 and 380 g were subject to subcutaneous injection after one week of acclimatization. Each animal was injected with 200 μl of a 0.1% acetic acid test solution, solutions having been prepared at concentrations to obtain a dosage of about 25 nmol of polypeptide per animal. Each test dose was immediately followed by intramuscular injection of 24 mg per Kg of body weight of tetracycline hydrochloride. A second injection of tetracycline was made 48 hours later.
Bone mineral apposition rates were determined by measurements of the lower metaphysis of the right femur, as described previously. Results obtained in the two sets of experiments are summarized in Tables Seven and Eight and graphically depicted in FIGS. 8 and 9.
Bone mineral apposition rates were again determined by measurement of the lower metaphysis of the right femur. Results obtained are summarized in Table Nineteen and graphically depicted in FIG. 12. […]
In a final set of experiments, a polypeptide having the ninth amino acid, cysteine, replaced by the amino acid tyrosine, SEQ ID NO:43, was synthesized and tested for bone stimulatory activity. Four rats (about 300 grams) were each administered with 100 nmoles of material (in 400 μl 20 mM acetic acid solution) by subcutaneous injection along with tetracycline (5 mg per animal in 400 μl water), as described above. A second dosage of tetracycline was administered 48 hours later and the animals sacrificed 24 hours after that. The lower metaphysis of the right femur was examined to determine the bone mineral apposition rate. For comparison, experiments were performed using a control in which no compound was present in the acetic acid solution.

[1] = Stability of dissolved polypeptides (capillary electrophoresis, RP-HPLC); type: physicochemical; conditions: for Stability relative to SEQ ID NOs: 7 or 24: general summary of stability tests
Procedure: Each of the polypeptides having the sequences identified as SEQ ID NO: 7 and 24 was dissolved in 5 mM acetic acid to a final concentration of 1 mg/ml and incubated at 37° C. The peptide compositions were analyzed weekly by capillary electrophoresis on a P/ACE 6000 system (Beckman) using 50 mM sodium phosphate pH 2.5 as the running buffer on a 57 cm long×75 μm internal diameter capillary. The incubated peptide (20 μl) was diluted with 80 μl of running buffer, placed in a 500 μl vial prior to injection onto the P/ACE using pressure for 20 seconds. Following electrophoresis of the incubated peptide at 30 kV for 15 min a second run was carried out using freshly dissolved peptide as a control.
Each of the polypeptides was dissolved in 20 mM sodium phosphate pH 3.0, 20 mM ammonium acetate pH 4.0, 20 mM ammonium acetate pH 5.0, 20 mM MES pH 6.0, 20 mM sodium phosphate pH 7.0, 20 mM sodium phosphate pH 7.5, 20 mM sodium phosphate pH 8.0, 20 mM ammonium acetate pH 8.5 or 20 mM ammonium acetate pH 9.5 to a final concentration of 1 mg/ml. The peptide was incubated at 37° C. and the peptide assayed weekly by separation on P/ACE as described above. Some samples were separated by RP-HPLC and the isolated peaks subjected to mass spectroscopic analysis.
The protected polypeptide identified as SEQ ID NO:24 was dissolved in 20 mM or 250 mM ammonium acetate pH 4.5 to a final concentration of 1 mg/ml. In some experiments the buffer was supplemented with 20 mM EDTA. The peptide solution was then incubated at −70° C., −20° C., 4° C. or room temperature (22° C.). Samples were assayed weekly by electrophoresis on the P/ACE as described above and/or by RP-HPLC.
The stability of each of the polypeptides having the amino acid sequences identified as SEQ ID NOs: 25, 26 and 27 was tested as described above.

[2] = about 25 nmol per animal s.c., second, separate set (Table Eight)
[3] = 20 mM buffers pH 3.0 to 9.5, 1 mg/ml, 37° C.
[4] = about 125 nmoles of polypeptide per Kg of body weight (Table Twenty)
[5] = male Sprague-Dawley rats 280-380 g, about 25 nmol per animal s.c., first set (Table Seven)
[6] = approximately 500 gm male Sprague-Dawley rats, 300 nmol/kg bodyweight (Table Twenty-Two)

Question: For GIGKRTNEHTADCK [SEQ ID NO:8], which “Bone mineral apposition rate, Mean” value (rats; [2]) is on record?
Answer: 2.09 μm/d

Question: For “CH3CO-Arg Thr Asn Glu His Thr Ala Glu Cys Lys-NH2 (Ac-RTNEHTAECK-NH2) [SEQ ID NO:25]”, which “Stability relative to SEQ ID NOs: 7 or 24” value [1] is on record?
Answer: more stable

Question: What about the Stability in solution ([1]; pH 2.5-3.0 for 20 days) of the same substance?
Answer: stable

Question: And the “Mean Bone Apposition Rate” value (rats; Table Twenty-One, FIG. 14, N=4)?
Answer: 1.94 μm/day

Question: Which “Bone stimulatory activity of substituted 10-amino acid polypeptides” value (from here on “Bone stimulatory activity”) (rats) does the source give for “SEQ ID NO:34: SEQ ID NO:24 sequence with one amino acid having a charged side chain substituted by alanine; acetylated, amidated (Ac-ATNEHTADCK-NH2)” here?
Answer: lack or to exhibit substantially less bone stimulatory activity

Question: Which results are given for TADCKIKPNTLHKKAAETLMVLD [SEQ ID NO:14]?
Answer: Increase of bone apposition rate with respect to the control (rats): none; Bone Apposition Rate, Mean (rats): 0.92 μm/day

Question: For “SEQ ID NO:24: ten amino acid sequence of SEQ ID NO:9, acetylated at the amino terminus and amidated at the carboxy terminus (Ac-RTNEHTADCK-NH2)”, which “Stability when dissolved in dilute acids” value ([1]; 5 mM acetic acid, 1 mg/ml, 37° C., analyzed weekly by capillary electrophoresis) is on record?
Answer: degraded overtime

Question: What about the “pH above which the peptide dimerized” value [1, 3] of the same substance?
Answer: > 6.0

Question: What about the “pH at which the peptide was most stable” value [1, 3] of the same substance?
Answer: ~4.5

Question: And the “pH below which the peptide degraded” value [1, 3]?
Answer: < 4.0

Question: What about the “Stability as a powder and when dissolved in pH 4.5 buffer” value ([1]; 20 mM or 250 mM ammonium acetate pH 4.5, 1 mg/ml) of the same substance?
Answer: very stable

Question: And the “Dissolved peptide compared with dry peptide stored at −70° C.” value ([1]; ammonium acetate pH 4.5, 1 mg/ml, incubated at 4° C., −20° C. or −70° C., up to 28 days)?
Answer: unchanged

Question: And the “Time after which modification of the peptide was observed (RP-HPLC)” value ([1]; ammonium acetate pH 4.5, 1 mg/ml, room temperature (22° C.))?
Answer: 7 days

Question: What about the “Mean Bone Apposition Rate” value (rats; Table Twenty-One, FIG. 14, N=4) of the same substance?
Answer: 2.04 μm/day

Question: And the “Mean Bone Apposition Rate” value (rats; [4])?
Answer: 2.72 μm/day

Question: What does the source list for RTNEHTADCKI [SEQ ID NO:16]?
Answer: Increase of bone apposition rate with respect to the control (rats): none; Bone Apposition Rate, Mean (rats): 1.02 μm/day

Question: Which “Increase of bone apposition rate with respect to the control” value (shortened to “Increase of bone apposition rate”) (rats) does the source give for LHKKAAETLMVLDQNQ [SEQ ID NO:10] here?
Answer: none

Question: With GIGKRTNEHTADCKIKPNTLHKKAA [SEQ ID NO:5] as the substance, how does the “Bone mineral apposition rate, Mean” value (rats; [5]) read?
Answer: 1.35 μm per day

Question: With “GIGKRTNEHTADCKIKPNTLHKKAAETLMV [SEQ ID NO:4]” as the substance, how does the “Bone mineral apposition rate, Mean” value (rats; [5]) read?
Answer: 1.31 μm per day

Question: Which results are given for “RTNEHTADCKIKPNTLHKKAAETLMVLDQN [SEQ ID NO:15]”?
Answer: Increase of bone apposition rate with respect to the control (rats): none; Bone Apposition Rate, Mean (rats): 0.92 μm/day

Question: Which “Bone mineral apposition rate, Mean” value (rats; [5]) does the source give for GIGKRTNEHTADCKIKPNTL [SEQ ID NO:6] here?
Answer: 1.37 μm per day

Question: With “Arg Thr Asn Glu His Thr Ala Asp Cys Lys (Ac-RTNEHTADCK-NH2) [SEQ ID NO:9]” as the substance, how does the “Bone mineral apposition rate, Mean” value (rats; [2]) read?
Answer: 2.83 μm/d

Question: And the “Mean Bone Apposition Rate” value (rats; [4])?
Answer: 2.11 μm/day

Question: With “CH3CO-Arg Thr Gln Glu His Thr Ala Glu Cys Lys-NH2 (Ac-RTQEHTAECK-NH2) [SEQ ID NO:26]” as the substance, how does the “Stability relative to SEQ ID NOs: 7 or 24” value [1] read?
Answer: more stable

Question: And the Stability in solution ([1]; pH 2.5-3.0, incubated at 37° C.)?
Answer: stable

Question: And the “Mean Bone Apposition Rate” value (rats; Table Twenty-One, FIG. 14, N=4)?
Answer: 2.88 μm/day

Question: What about the “Mean Bone Apposition Rate” value (rats; [6]) of the same substance?
Answer: 2.04 μm/day

Question: Which “Mean Bone Apposition Rate” value (rats; [6]) does the source give for “SEQ ID NO:45: third amino acid asparagine replaced by glutamine, eighth aspartic acid by glutaric acid, ninth cysteine by tyrosine (as printed) (Ac-RTQEHTAEYK; not fully specified; also: position 8 stated as glutaric acid replacing Asp, X10 not defined)” here?
Answer: 1.77 μm/day

Question: With “SEQ ID NO:36: SEQ ID NO:24 sequence with one amino acid having a charged side chain substituted by alanine; acetylated, amidated (Ac-RTNEATADCK-NH2)” as the substance, how does the “Bone stimulatory activity” value (rats) read?
Answer: lack or to exhibit substantially less bone stimulatory activity

Question: Which “Increase of bone apposition rate” value (rats) does the source give for LHKKAAETLMVLD [SEQ ID NO:13] here?
Answer: none

Question: For LHKKAAETLMVLDQN [SEQ ID NO:11], which “Increase of bone apposition rate” value (rats) is on record?
Answer: none

Question: With “SEQ ID NO:37: SEQ ID NO:24 sequence with one amino acid having a charged side chain substituted by alanine; acetylated, amidated (Ac-RTNEHTAACK-NH2)” as the substance, how does the “Bone stimulatory activity” value (rats) read?
Answer: lack or to exhibit substantially less bone stimulatory activity

Question: With “SEQ ID NO:38: SEQ ID NO:24 sequence with one amino acid having a charged side chain substituted by alanine; acetylated, amidated (Ac-RTNEHTADCA-NH2)” as the substance, how does the “Bone stimulatory activity” value (rats) read?
Answer: lack or to exhibit substantially less bone stimulatory activity

Question: Which “Bone mineral apposition rate, Mean” value (rats; rats 295-320 g, 0.1 ml of 1 mg per ml solution s.c., lower metaphysis of right femur (Table Six)) does the source give for “GIGKRTNEHTADAKIKPNTLHKKAAETLMVLDQNQP [SEQ ID NO:3]” here?
Answer: 1.35 μm/d

Question: Which results are given for “CH3CO-Arg Thr Gln Glu His Thr Ala Asp Cys Lys-NH2 (Ac-RTQEHTADCK-NH2) [SEQ ID NO:27]”?
Answer: Stability in solution ([1]; all pHs tested, 37° C. for 3 days): unstable; Stability relative to SEQ ID NOs: 7 or 24 [1]: significantly less stable; Mean Bone Apposition Rate (rats; Table Twenty-One, FIG. 14, N=4): 1.72 μm/day

Question: Which “Increase of bone apposition rate” value (rats) does the source give for LHKKAAETLMVLDQ [SEQ ID NO:12] here?
Answer: none
